Common to all, as to assay type: cell-based, chick
Experiment [1] concerns the target T1, α7 AChR M^40C mutant (C^115A/L^247T background) (Gallus gallus, UniProt P22770, C138A/L270T/M63C).
T1 construct: expressed in transfected cells; host or cells: Xenopus laevis oocytes injected with cRNA
From the text: A cDNA clone of the chick α7 receptor containing two mutations (C^115A, L^247T) was used as the parental phenotype for mutations described in this study. We mutated the lone unpaired cysteine in the extracellular domain (C^115) to alanine to allow for a more straightforward interpretation of thiol modification experiments. […] We included the mutation of leucine 247 in the M2 transmembrane domain (L^247T; L9'T) because of its large current amplitudes and non-desensitizing kinetics compared to wild-type α7 receptors. […] All mutations were introduced by site-directed mutagenesis using the QuikChange method (Agilent Technologies, La Jolla, CA) as described previously, and were confirmed by DNA sequencing. […]
Oocytes were superfused in normal extracellular solution containing a reduced Ca^2+ concentration (ESLC; 96 mM NaCl, 2 mM KCl, 1 mM MgCl2, 0.1 mM CaCl2, and 10 mM HEPES, pH 7.5). […] Currents were recorded at a constant holding potential of -60 mV. […]
MTSEA was prepared daily in distilled water and stored on ice. […] Kinetic data were analyzed as described previously; rate data were fit to a single exponential to extract a pseudo-first order rate constant; this was divided by the MTSEA concentration used to determine the second order rate constant for thiol modification.

Experiment [2] deals with α7 AChR E^44C mutant (C^115A/L^247T background) (Gallus gallus, UniProt P22770, C138A/E67C/L270T). The experiment can be described thus: ACh dose-response, two-electrode voltage clamp in Xenopus oocytes. An excerpt:
(§1) A cDNA clone of the chick α7 receptor containing two mutations (C^115A, L^247T) was used as the parental phenotype for mutations described in this study. We mutated the lone unpaired cysteine in the extracellular domain (C^115) to alanine to allow for a more straightforward interpretation of thiol modification experiments. […] We included the mutation of leucine 247 in the M2 transmembrane domain (L^247T; L9'T) because of its large current amplitudes and non-desensitizing kinetics compared to wild-type α7 receptors. […] All mutations were introduced by site-directed mutagenesis using the QuikChange method (Agilent Technologies, La Jolla, CA) as described previously, and were confirmed by DNA sequencing.
(§2) cRNA was prepared using the T7 RNA polymerase and mMessage mMachine kit as described by the manufacturer (Applied Biosystems, Austin, TX). Oocytes were surgically removed and prepared from female Xenopus laevis in accordance with UNC Institutional Animal Care and Use Committee guidelines. Oocytes were injected with 20 ng of cRNA and incubated at 18°C in ND96 (96 mM NaCl, 2 mM KCl, 1 mM MgCl2, 1.8 mM CaCl2, 5 mM Na pyruvate, 50 μg/ml gentamicin, 5 mM HEPES, pH 7.5) for 2–5 days before use. For some mutants we co-injected cRNA encoding the human RIC-3 [38], a protein shown to enhance expression of α7 AChRs in both mammalian cells and oocytes.
(§3) Oocytes were superfused in normal extracellular solution containing a reduced Ca^2+ concentration (ESLC; 96 mM NaCl, 2 mM KCl, 1 mM MgCl2, 0.1 mM CaCl2, and 10 mM HEPES, pH 7.5). […] Two-electrode voltage clamp was performed with a GeneClamp 500B controlled by pCLAMP8 software (Molecular Devices, Sunnyvale, CA). Electrodes were filled with 3 M KCl contacting Ag-AgCl wires and had resistances of 0.5 to 2.0 MΩ. Currents were recorded at a constant holding potential of -60 mV. Currents were low pass filtered at 50 Hz and sampled at 100 Hz. Agonist dose-response curves were obtained as described previously, and data were fit to the Hill equation using Origin software (Microcal Software, Northampton, MA).
(§4) MTSEA was prepared daily in distilled water and stored on ice. Stock solution was diluted to the appropriate working concentration in ESLC immediately before each application. […] To measure the effect of Ba^2+ on modification rates we pre-applied 10 mM Ba^2+ for 30 seconds prior to co-application of 10 mM Ba^2+ plus MTSEA. […] Kinetic data were analyzed as described previously; rate data were fit to a single exponential to extract a pseudo-first order rate constant; this was divided by the MTSEA concentration used to determine the second order rate constant for thiol modification.
On the technique in general: Two-electrode voltage clamp holds a large cell at a set potential and records current.

The target of experiment [3] is α7 AChR N^170C mutant (C^115A/L^247T background) (Gallus gallus, UniProt P22770, C138A/L270T/N193C). The description is as above. The conditions noted are these: co-expression with human RIC-3.
Source text: as §1, §2, §3, §4

Experiment [4] concerns the target α7 AChR N^52C mutant (C^115A/L^247T background) (Gallus gallus, UniProt P22770, C138A/L270T/N75C). The experiment is described as above.
Source text: as §1, §2, §3, §4

Experiment [5] addresses α7 AChR M^37C mutant (C^115A/L^247T background) (Gallus gallus, UniProt P22770, C138A/L270T/M60C). The description is as above.
Source text: as §1, §2, §3, §4

Experiment [6] deals with α7 AChR M^40C/E^172Q mutant (C^115A/L^247T background) (Gallus gallus, UniProt P22770, C138A/E195Q/L270T/M63C). The experiment is described as above. The conditions noted are these: co-expression with human RIC-3.
Source text: as §1, §2, §3, §4

The target of experiment [7] is α7 AChR E^172C mutant (C^115A/L^247T background) (Gallus gallus, UniProt P22770, C138A/E195C/L270T). The description is as above. The conditions noted are these: co-expression with human RIC-3.
Source text: as §1, §2, §3, §4

For experiment [8], the target named is α7 C^115A/L^247T receptor (Gallus gallus, UniProt P22770, C138A/L270T). Described as above.
Source text: as §1, §2, §3, §4

`CC(=O)OCC[N+](C)(C)C` [ACh, acetylcholine chloride]: the “ACh Imax” value in experiment [1] is 3.0 μA; in experiment [2], 5.4 μA; in experiment [3], 1.7 μA; in experiment [4] it was 0.34 μA; in experiment [5], 0.92 μA; in experiment [6] it was 0.7 μA. In addition, the “ACh Imax” value is recorded as 1.3 μA in experiment [7] and 6.9 μA in experiment [8]. Also, the “Hill coefficient of ACh dose-response” value in experiment [2] (+ 10 mM BaCl2) was found to be 2.9 ± 0.7; in experiment [2] (-Ba^2+), 1.7 ± 0.2; in experiment [8] (+ 10 mM BaCl2) it was 1.9 ± 0.4; in experiment [8] (-Ba^2+), 2.5 ± 0.2.
